Consider 11 compounds from US20100184809A1, “Heterocyclic FXR Binding Compounds” (PHENEX PHARMACEUTICALS AG, priority 2006, published 2010).

A short description of one data set: Caco-2 permeability. It counts as in vitro ADME. The conditions noted are these: human, apical to basolateral. Here is the method:
Caco-2 cells are widely used as an in vitro model for predicting human drug absorption. The Caco-2 cell line is derived from a human colorectal carcinoma, and when cultured, the cells spontaneously differentiate into monolayers of polarised enterocytes. The cells are seeded on Transwell™ plates and form a confluent monolayer over 20 days prior to the experiment. On day 20, the test compound is added to the apical side of the membrane and the transport of the compound across the monolayer is monitored over a 2 hour time period. To study drug efflux, it is also necessary to investigate transport of the compound from the basolateral compartment to the apical compartment. The permeability coefficient (Papp) is calculated from the following equation: […]
Where dQ/dt is the rate of permeation of the drug across the cells, CO is the donor compartment concentration at time zero and A is the area of the cell monolayer.

Data set [1] can be described thus: Plasma protein binding assay (equilibrium dialysis). The class given is in vitro ADME. The conditions noted are these: 37° C., extrapolated fraction unbound. Here is the method:
Equilibrium dialysis is used to determine the extent of binding of a compound to plasma proteins. A semi-permeable membrane separates a protein-containing compartment from a protein-free compartment. The system is allowed to equilibrate at 37° C. The test compound present in each compartment is quantified by LC-MS/MS. The extent of binding is reported as a fraction unbound (fu) value which is calculated as fu=1−(PC−PF)/PC. PC=Test compound concentration in protein-containing compartment. PF=Test compound concentration in protein-free compartment. In addition to using whole plasma, the plasma protein binding assay can be performed using two other ratios of plasma (10% or 50% plasma in buffer v/v). The following equations are used to convert from a fraction unbound at 10% or 50% to a fraction unbound at 100%: […]

Data set [2] deals with T1, human FXRalpha ligand binding domain (LBD) (Homo sapiens, UniProt Q96RI1).
T1 construct: made in house; host or cells: E. coli BL21(DE3), vector pDEST15
T1 sequence (Q96RI1 187-472 isoform Q96RI1-2): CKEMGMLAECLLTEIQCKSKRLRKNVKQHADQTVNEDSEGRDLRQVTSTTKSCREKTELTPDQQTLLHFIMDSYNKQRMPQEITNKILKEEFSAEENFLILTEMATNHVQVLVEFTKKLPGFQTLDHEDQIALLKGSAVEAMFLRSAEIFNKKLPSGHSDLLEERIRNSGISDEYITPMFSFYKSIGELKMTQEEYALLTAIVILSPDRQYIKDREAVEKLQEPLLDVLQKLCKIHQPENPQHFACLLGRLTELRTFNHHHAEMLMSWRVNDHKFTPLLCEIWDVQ
As to the kind of experiment: FRET activity assay (ligand mediated cofactor peptide interaction, LANCE). The conditions noted are these: GST-FXR-LBD / biotinylated SRC-1 peptide (676-700). The class given is biochemical. Here is the method: Determination of a ligand mediated cofactor peptide interaction to quantify ligand binding to the nuclear receptor Farnesoid X Receptor (FXR) was performed as follows:
Preparation of human farnesoid X receptor (FXR) alpha ligand binding domain: The human FXRalpha ligand binding domain (LBD) was expressed in E. coli strain BL21(DE3) as an N-terminally glutathione-[…] (GST) tagged fusion protein. The DNA encoding the FXR ligand binding domain was cloned into vector pDEST15 (Invitrogen). Expression was under control of an IPTG inducible T7 promoter. The amino acid boundaries of the ligand binding domain were amino acids 187-472 of Database entry NM_005123 (RefSeq). Expression and purification of the FXR-LBD: An overnight preculture of a transformed E. coli strain was diluted 1:20 in LB-Ampicillin medium and grown at 30° C. to an optical density of OD600=0.4-0.6. Gene expression was then induced by addition of 0.5 mM IPTG. Cells were incubated an additional 6 h at 30° C., 180 rpm. Cells were collected by centrifugation (7000×g, 7 min, room temperature). Per liter of original cell culture, cells were resuspended in 10 ml lysis buffer (50 mM Glucose, 50 mM Tris pH 7.9, 1 mM EDTA and 4 mg/ml lysozyme) and left on ice for 30 min. Cells were then subjected to sonication and cell debris removed via centrifugation (22000×g, 30 min, 4° C.). Per 10 ml of supernatant 0.5 ml prewashed Glutathione 4B sepharose slurry (Qiagen) was added and the suspension kept slowly rotating for 1 h at 4° C. Glutathione 4B sepharose beads were pelleted by centrifugation (2000 g, 15 sec, 4° C.) and washed twice in wash buffer (25 mM Tris, 50 mM KCl, 4 mM MgCl2 and 1M NaCl). The pellet was resuspended in 3 ml elution buffer per liter of original culture (elution buffer: 20 mM Tris, 60 mM KCl, 5 mM MgCl2 and 80 mM glutathione added immediately prior to use as powder). The suspension was left rotating for 15 min at 4° C., the beads pelleted and eluted again with half the volume of elution buffer than the first time. The eluates were pooled and dialysed overnight in 20 mM Hepes buffer (pH 7.5) containing 60 mM KCl, 5 mM MgCl2 as well as 1 mM dithiothreitol and 10% (v/v) glycerol. The protein was analysed by SDS-Page.
The method measures the ability of putative ligands to modulate the interaction between the purified bacterial expressed FXR ligand binding domain (LBD) and a synthetic biotinylated peptide based on residues 676-700 of SRC-1 (LCD2, 676-700). The sequence of the peptide used was B-[…]-COOH where the N-terminus was biotinylated (B). The ligand binding domain (LBD) of FXR was expressed as fusion protein with GST in BL-21 cells using the vector pDEST15. Cells were lysed by sonication, and the fusion proteins purified over glutathione sepharose (Pharmacia) according to the manufacturers instructions. For screening of compounds for their influence on the FXR-peptide interaction, the Perkin Elmer LANCE technology was applied. This method relies on the binding dependent energy transfer from a donor to an acceptor fluorophor attached to the binding partner of interest. For ease of handling and reduction of background from compound fluorescence LANCE technology makes use of generic fluorophore labels and time resolved detection Assays were done in a final volume of 2 5 μl in a 384 well plate, in a Tris-based buffer (20 mM Tris-HCl pH 7,5; 60 mM KCl, 5 mM MgCl2; 35 ng/μl BSA), containing 20-60 ng/well recombinantly expressed FXR-LBD fused to GST, 200-600 nM N-terminally biotinylated peptide, representing SRC1 aminoacids 676-700, 200 ng/well Streptavidin-xIAPC conjugate(Prozyme) and 6-10 ng/well Eu W1024 antiGST (Perkin Elmer). DMSO content of the samples was kept at 1%. After generation of the assay mix and diluting the potentially FXR modulating ligands, the assay was equilibrated for one hour in the dark at room temperature in FIA-plates black 384 well (Greiner). […]
(In general: TR-FRET usually uses a lanthanide donor and a delayed reading to cut background.)

Data set [3] is described as follows: Rat microsomal stability assay. It counts as in vitro ADME. The conditions noted are these: liver microsomes, 37° C., NADPH, 45 minute, read-out: Rat liver microsome clearance. Here is the method:
Compound stability towards rat liver microsomes was determined as follows: The microsomes are incubated with the test compound at 37° C. in the presence of the co-factor, NADPH, which initiates the reaction. The reaction is terminated by the addition of methanol. Following centrifugation, the supernatant is analysed on the LC-MS/MS. The disappearance of test compound is monitored over a 45 minute time period. The In peak area ratio (compound peak area/internal standard peak area) is plotted against time and the gradient of the line determined. Finally, Intrinsic clearance CLint is computed by the following equations: elimination rate konstant (k)=−gradient; t1/2 (min)=0.693/k; V (μl/mg)=volume of incubation (μl)/protein in incubation (mg); CLint (μl/min/mg protein)=V*0.693/t1/2.
For orientation: Microsomes from liver hold many membrane-bound enzymes, among them those of drug oxidation.

Data set [4] is described as follows: Aqueous solubility assay, Protocol A, nephelometry method. The conditions noted are these: PBS with 5% DMSO, aqueous with cosolvent or surfactant or cyclodextrin, kinetic from dmso stock, PBS pH 7.4, 5% DMSO, 23° C., 24 hours, read-out: Aqueous solubility pH 7.4. The class given is physicochemical. Here is the method: Aqueous solubility of compounds was determined by nephelometry or by the shake-flask method as follows:
Protocol A, nephelometry method:
Solubility of compounds was measured in PBS (pH 7.4), 5% DMSO at 23° C. Nepheloskan Ascent (Thermo Electron Corporation) nephelometer was used for measurement of light scattering. Tested compounds were dissolved in DMSO to 10 mM. Prior to measurement the compounds were further diluted with PBS in the wells to final compound concentrations of 100, 70, 50, 35, 25, 17, 12 and <10 μg/ml.
The plates were incubated at room temperature for 24 hours to reach equilibrium and the scattered light was measured. Assay validation: Aqueous solubility of acetylsalicylic acid was determined to validate the assay.
The following compounds of Table 2 exemplify such solubility with “−−” meaning solubility<2 μM, “+” meaning 2 μM solubility 100 μM and “++” meaning solubility

Molecules are shown by their SMILES. Converted amounts (≈) assume the structure as drawn.

The Papp A→B is how fast a substance crosses the layer from the apical side. The low end stands for slow passage, the high end for fast passage. What is called fraction unbound is the share of the substance not bound to proteins or other matrix. Usually IC50 stands for the midpoint of a concentration-inhibition curve. A higher IC50 goes with weaker potency. As usually defined, the melting point is the temperature, or range, at which the solid turns liquid. Usually solubility stands for how much of the substance goes into solution per volume.

With `Cc1onc(-c2c(Cl)cccc2Cl)c1COc1ccc(NC(=O)c2cccc(C(=O)O)c2)cc1` [Compound C, reference compound], the Papp A→B at 2 h in “Caco-2 permeability” was 0.6 ×10⁻⁶ cm/s. Besides, the fraction unbound in data set [1] was 0.0001.
`Cc1onc(-c2c(Cl)cccc2Cl)c1COc1ccc(NC(=O)c2cccc(C(=O)O)c2)cn1` [Example 15, 3-(6-((3-(2,6-dichlorophenyl)-5-methylisoxazol-4-yl)methoxy)pyridin-3-ylcarbamoyl)benzoic acid] yielded an IC50 in data set [2] of 1000 to 10000 nM. Further, the fraction unbound in data set [1] was 0.0003. In addition, the microsomal CLint in data set [3] was determined as 149 µL/min/mg.
With `Cc1cc(OCc2c(-c3c(Cl)cccc3Cl)noc2C(C)C)cnc1NC(=O)c1ccc(C(=O)O)cc1` [Example 19, N-(5-[3-(2,6-Dichloro-phenyl)-5-isopropyl-isoxazol-4-ylmethoxy]-3-methyl-pyridin-2-yl)-terephthalamic acid], the melting point amounted to 218 °C. The same compound returned an IC50 in data set [2] of no more than 1000 nM. Moreover, the fraction unbound in data set [1] was 0.003. The microsomal CLint in data set [3] was determined as 57 µL/min/mg.
Compound `CC(C)c1onc(-c2c(Cl)cccc2Cl)c1COc1ccc(NC(=O)c2cccc(C(=O)O)c2)c(C(F)(F)F)n1` [Example 21] displayed a melting point of 153.8 to 154.8 °C. Further, in data set [2], the IC50 was no more than 1000 nM. The solubility at 24 h in data set [4] is greater than 100 µM.
For `CC(C)c1onc(-c2c(Cl)cccc2Cl)c1COc1ccc(N(C)C(=O)c2ccc(C(N)=O)cc2)c(C(F)(F)F)n1` [Example 23, N^1-(6-((3-(2,6-Dichlorophenyl)-5-isopropylisoxazol-4-yl)methoxy)-2-(trifluoromethyl)pyridin-3-yl)-N^1-methylterephthalamide] the same measures were 229 °C (dec.), no more than 1000 nM and 2 to 100 µM (≈ 1.21 to 60.7 µg/mL).
With `Cc1cc(OCc2c(-c3c(Cl)cccc3Cl)noc2C(C)C)cnc1N(C)C(=O)c1ccc(C(=O)O)cc1` [Example 26, 4-((5-((3-(2,6-dichlorophenyl)-5-isopropylisoxazol-4-yl)methoxy)-3-methylpyridin-2-yl)(methyl)carbamoyl)benzoic acid], the IC50 in data set [2] lay within 1000 to 10000 nM. The microsomal CLint in data set [3] is 55 µL/min/mg.
`CC(C)c1onc(-c2c(Cl)cccc2Cl)c1COc1ccc(NCc2ccc(C(=O)O)cc2)c(C(F)(F)F)n1` [Example 27, 4-((6-((3-(2,6-Dichlorophenyl)-5-isopropylisoxazol-4-yl)methoxy)-2-(trifluoromethyl)pyridin-3-ylamino)methyl)benzoic acid]: the melting point was in the range of 259.1 to 260.1 °C. The same compound had an IC50 in data set [2] of no more than 1000 nM.
For `CC(C)c1nnn(-c2c(Cl)cccc2Cl)c1COc1ccc(N(C)C(=O)c2ccc(C(=O)O)cc2)c(C(F)(F)F)n1` [Example 29, 4-((6-((1-(2,6-Dichlorophenyl)-4-isopropyl-1H-1,2,3-triazol-5-yl)methoxy)-2-(trifluoromethyl)pyridin-3-yl)(methyl)carbamoyl)benzoic acid] the same measures were 218 to 219 °C and no more than 1000 nM.
`Cc1nc(OCc2c(C(C)C)nnn2-c2c(Cl)cccc2Cl)ccc1N(C)S(=O)(=O)c1ccc(C(=O)O)cc1` [Example 30, 4-(N-(6-((1-(2,6-dichlorophenyl)-4-isopropyl-1H-1,2,3-triazol-5-yl)methoxy)-2-methylpyridin-3-yl)-N-methylsulfamoyl)benzoic acid]: the melting point fell in the range of 127.8 to 128.8 °C. In data set [2], this compound yielded an IC50 of no more than 1000 nM.
In data set [2], `CC(C)c1onc(-c2c(Cl)cccc2Cl)c1COc1ccc(N(C)Cc2ccc(C(=O)NCCO)cc2)c(C(F)(F)F)n1` [Example 36, 4-(((6-((3-(2,6-Dichlorophenyl)-5-isopropylisoxazol-4-yl)methoxy)-2-(trifluoromethyl)pyridin-3-yl)(methyl)amino)methyl)-N-(2-hydroxyethyl)benzamide] had an IC50 of no more than 1000 nM.
Same read-out and setting: the value for `CC(C)c1onc(-c2c(Cl)cccc2Cl)c1COc1ccc(N(C)Cc2ccc(C(=O)NCCN(C)C)cc2)c(C(F)(F)F)n1` [Example 37, 4-(((6-((3-(2,6-Dichlorophenyl)-5-isopropylisoxazol-4-yl)methoxy)-2-(trifluoromethyl)pyridin-3-yl)(methyl)amino)methyl)-N-(2-(dimethylamino)ethyl)benzamide] was no more than 1000 nM.
